Consider 1 compound from patent US10799521B2, “Use of icaritin in preparing medicament for preventing or treating hematocytopenia” (Lunan Pharmaceutical Group Corporation, priority 2013, dated 2020).

Details of data set [1]: species or system Kunming mice. The following applies: mouse, in vivo. As for the experimental part:
Mice ascites tumor s180 cells were conventionally incubated in 1640 culture medium, at 37° C., 5% CO2, and passaged once every two days in average. The cells in the logarithmic growth phase were prepared into a single-cell suspension having a density of 3.0×10^7 cells/ml with normal saline, which was injected into the abdominal cavities of mice under sterile conditions. Seven days after inoculation, significant swelling of the abdominal cavities of mice can be seen. As this time, the mice were executed by cervical vertebra luxation, put into a beaker containing 75% ethanol and soaked for 2-3 minutes. The sterilized mice were placed into an ultraclean bench, and the abdomens were exposed. The ascites was drawn with a sterile syringe and put into a sterile reagent bottle for further use. The above ascites was counted with trypan blue, diluted with normal saline to adjust to 2.0×10^7 cells/ml, and inoculated at the right armpit of the mice with 0.2 ml for each mouse.
The inoculated mice were randomly divided into 6 groups, with 10 animals in each group and half male and half female.
Docetaxel and icaritin were administered by tail intravenous injection with an administration volume of 10 ml/kg for each. Tegafur, Gimeracil and Oteracil Potassium Capsules was intragastrically administered with an administration volume of 40 ml/kg. Each group was administered once a day for totally 10 days. During the test, the animals were observed every day for their food and water uptake, survival conditions and behaviors, and measured for their body weights every day. After the test was ended, the mice were anaesthetized and anatomized. Blood was collected from abdominal aorta for routine blood test, and the total number of white blood cells, the total number of platelets and the total number of neutrophils were determined.

The test system of data set [2] is mice receiving 4 Gy of ^60Co radiation. In words: Effect on the number of blood cells in mice receiving 4 Gy of ^60Co radiation. The following applies: 4 Gy ^60Co irradiated mice; ip once a day for 10 days; epimedium extract 3.5 ml/kg/d, icaritin 10 mg/kg/d. Format: in vivo, Kunming mice. From the text: Mice in each group, except for the normal group (10 mice), were radiated with 4 Gy of ^60Co by one-time systemic radiation with an absorbed dose of 4 Gy and an absorbed dose rate of 0.88 Gy/min. Blood was sampled at days 3, 7 and 10 after the radiation, respectively, from orbital vein for the whole blood cell count. The mice of which the number of white blood cells was lower than 3.0×10^9/L or the number of platelets was lower than 500×10^9/L in two consecutive whole blood cell counts were excluded, and the remaining mice were used to be tested.
The mice which met the requirements of the experiment after the radiation were randomly divided into the following model control group, epimedium extract group and icaritin group, with 10 animals in each group and half male and half female. Each group was treated or administered as follows.
Group 1, the normal group: administered by intraperitoneal injection with 0.9% normal saline in an administration volume of 10 ml/kg;
Group 2, the model control group: administered by intraperitoneal injection with 0.9% normal saline in an administration volume of 10 ml/kg; […]
Each group was administered once a day for totally 10 days. […] After the test was ended, blood was sampled from abdominal aorta for routine blood test, and the total number of white blood cells and the total number of platelets were determined.

A further data set relates to normal mice. The experiment in a line: Bleeding time in normal mice (tail tip cut). Format: in vivo, Kunming mice. The arrangement: unit not given here. Particulars: 3 days, 1 h after last administration. How it is done: 100 Kunming mice were randomly divided into 5 groups, i.e. the blank control group (normal saline group), the icariin group (positive control group), the high-dose icaritin group, the medium-dose icaritin group, and the low-dose icaritin group. Each group was administered as follows. Blank control group: administered with the same volume of normal saline by subcutaneous injection; Icariin group: administered with 2 mg/kg of icariin by injection; High-dose icaritin group: administered with the injection of icaritin of Example 1 by subcutaneous injection at a dosage of 10 mg/kg; Medium-dose icaritin group: administered with the injection of icaritin of Example 1 by subcutaneous injection at a dosage of 5 mg/kg; Low-dose icaritin group: administered with the injection of icaritin of Example 1 by subcutaneous injection at a dosage of 1 mg/kg. Measurement of the bleeding time: The normal saline group (blank control group), the icariin group (positive control group), and the icaritin administration groups (high-, medium-, and low-dose groups) were designed as follows: 50 mice were selected, weighed, and randomly divided into 5 groups, with 10 mice in each group. The animals were administered consecutively for 3 days. At 1 h after the last administration, a filter paper was rolled to form a filter paper cartridge with a diameter similar to that of the mouse body, which was closed at one end. The mouse was allowed to climb into the cartridge. Then about 3 mm of tail tip of the mouse was cut with scissors. A stopwatch was started to record the time when the bleeding started. The tail tip of the mouse was point-contacted with a filter paper gently every 15 s until there was no blood or no blood can be seen.

The subject of data set [3] is model of thrombocytopenia induced by cyclophosphamide in mice. In words: Thrombocytopenia induced by cyclophosphamide in mice (platelets in peripheral blood). In kind it is in vivo, Balb/C mice. The following applies: cyclophosphamide model mice, 3 weeks, x ± s. As for the experimental part: 72 Balb/C mice were selected, weighed, and randomly divided into 6 groups, i.e. the normal group, the model control group, the icariin group (positive control group), and the icaritin administration groups (high-, medium-, and low-dose groups), with 12 mice in each group. […] One week before starting to establish the model, each group was administered with the following therapeutic agents:
The normal group: administered subcutaneously with the same volume of normal saline;
The model control group: administered subcutaneously with the same volume of normal saline;
The icariin group: administered by subcutaneous injection with 2 mg/kg of icariin;
The high-dose icaritin group: administered by subcutaneous injection with 10 mg/kg of the icaritin injection of Example 11;
The medium-dose icaritin group: administered by subcutaneous injection with 5 mg/kg of the icaritin injection of Example 11;
The low-dose icaritin group: administered by subcutaneous injection with 1 mg/kg of the icaritin injection of Example 11.
Each group was administered once a day and fed normally. After consecutive administration for 3 weeks, the mice were anesthetized, and blood was sampled to measure the number of platelets and determine the effect of icaritin on the number of platelets (PLT) in the peripheral blood.

SMILES strings stand for the structures. Marks after values point to notes of the source that are not given here.

As to `COc1ccc(-c2oc3c(CC=C(C)C)c(O)cc(O)c3c(=O)c2O)cc1` [Icaritin], the “Body weight Before Administration” value in data set [1] turned out to be 21.1 ± 3.0 g. The Platelets in data set [2] is given as 596.2 ± 72.5^#$ 10^9/L. Also, the White blood cells in data set [2] was 4.225 ± 0.51^##$ 10^9/L. Besides, the “Bleeding Time” value in the data set with normal mice (high dose 10 mg/kg sc) was 1.86 ± 0.24**^ΔΔ; in the data set with normal mice (low dose 1 mg/kg sc) it was 3.75 ± 0.46; in the data set with normal mice (medium dose 5 mg/kg sc), 2.51 ± 0.35**^Δ. The PLT in data set [3] (low dose 1 mg/kg sc (injection of Example 11)) is on record as 633.5 ± 43.2 10^9/L; in data set [3] (medium dose 5 mg/kg sc (injection of Example 11)), 725.9 ± 66.7 10^9/L.
